Laboratory results reported in publication PMC8118430, “Utility of novel 2-furanones in synthesis of other heterocyclic compounds having anti-inflammatory activity with dual COX2/LOX inhibition” (Journal of Enzyme Inhibition and Medicinal Chemistry, 2021).
Like-named read-outs stand apart in the source and are kept apart here.

Tests used:
15-LOX = target: T1, 15-LOX (Glycine max, UniProt P08170); assay: Lipoxygenase (15-LOX) inhibition assay (Cayman LOX inhibitor screening kit); type: biochemical, soybean; conditions: mean ± SD of three experiments
T1 construct: purchased Cayman Chemical 760700
T1 sequence (P08170 1-839): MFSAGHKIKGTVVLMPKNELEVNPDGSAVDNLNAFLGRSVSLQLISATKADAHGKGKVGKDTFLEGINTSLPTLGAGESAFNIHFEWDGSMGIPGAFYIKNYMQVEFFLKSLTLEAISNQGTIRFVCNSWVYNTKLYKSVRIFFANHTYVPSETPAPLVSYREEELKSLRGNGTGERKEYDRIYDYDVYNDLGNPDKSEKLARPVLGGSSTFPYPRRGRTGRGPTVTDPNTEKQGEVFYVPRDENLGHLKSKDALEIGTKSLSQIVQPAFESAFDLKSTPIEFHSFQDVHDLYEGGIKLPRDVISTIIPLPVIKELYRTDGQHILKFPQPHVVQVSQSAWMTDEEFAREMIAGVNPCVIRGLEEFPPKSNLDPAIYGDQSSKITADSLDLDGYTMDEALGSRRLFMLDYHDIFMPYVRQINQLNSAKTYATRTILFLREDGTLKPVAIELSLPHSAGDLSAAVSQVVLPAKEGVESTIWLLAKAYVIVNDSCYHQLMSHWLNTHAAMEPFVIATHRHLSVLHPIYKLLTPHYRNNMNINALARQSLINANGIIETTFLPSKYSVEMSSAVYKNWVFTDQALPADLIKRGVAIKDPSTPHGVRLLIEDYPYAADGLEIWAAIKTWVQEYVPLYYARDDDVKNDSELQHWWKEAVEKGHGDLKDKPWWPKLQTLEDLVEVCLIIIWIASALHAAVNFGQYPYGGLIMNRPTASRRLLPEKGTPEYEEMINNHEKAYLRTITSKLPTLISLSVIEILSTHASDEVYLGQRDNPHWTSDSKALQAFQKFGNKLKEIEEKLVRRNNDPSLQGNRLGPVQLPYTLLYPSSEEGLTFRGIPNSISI
Procedure: Briefly, in a 96-well plate, 10 µl of each test compound (dissolved in DMSO) or vehicle were pre-incubated with 90 µl of 15-LOX enzyme. The reaction was started by addition of 10 µl of substrate (AA) and the plate was shaken for at least 5 min. Then, 100 µl of chromogen supplied with the kit was added to each well to stop the enzymatic reaction and develop the colour. The absorbance was measured at 490 nm using microplate reader.
Therefore, the soybean LOX is most like the mammalian 15-LOX[59].

TNF-α = target: T2, TNF-α (Homo sapiens, UniProt P01375); assay: TNFR2: TNF-α [biotinylated] inhibitor screening assay; type: binding; conditions: mean ± SD of three experiments
T2 construct: purchased BPS Bioscience 79756
Procedure: The assay was performed in triplicates using TNFR2: TNF-α [biotinylated] […] First, TNFR2 is coated on a 96-well plate. Next, biotinylated TNF-α is incubated with TNFR2 on the plate. Finally, the plate was treated with streptavidin-HRP followed by addition of an HRP substrate to produce chemiluminescence, which can be measured using a chemiluminescence reader.

COX-1 = target: T3, COX-1 (Ovis aries, UniProt P05979); assay: Cyclooxygenase COX-1 inhibition assay (Cayman COX inhibitor screening kit, EIA)
T3 sequence (P05979 25-600): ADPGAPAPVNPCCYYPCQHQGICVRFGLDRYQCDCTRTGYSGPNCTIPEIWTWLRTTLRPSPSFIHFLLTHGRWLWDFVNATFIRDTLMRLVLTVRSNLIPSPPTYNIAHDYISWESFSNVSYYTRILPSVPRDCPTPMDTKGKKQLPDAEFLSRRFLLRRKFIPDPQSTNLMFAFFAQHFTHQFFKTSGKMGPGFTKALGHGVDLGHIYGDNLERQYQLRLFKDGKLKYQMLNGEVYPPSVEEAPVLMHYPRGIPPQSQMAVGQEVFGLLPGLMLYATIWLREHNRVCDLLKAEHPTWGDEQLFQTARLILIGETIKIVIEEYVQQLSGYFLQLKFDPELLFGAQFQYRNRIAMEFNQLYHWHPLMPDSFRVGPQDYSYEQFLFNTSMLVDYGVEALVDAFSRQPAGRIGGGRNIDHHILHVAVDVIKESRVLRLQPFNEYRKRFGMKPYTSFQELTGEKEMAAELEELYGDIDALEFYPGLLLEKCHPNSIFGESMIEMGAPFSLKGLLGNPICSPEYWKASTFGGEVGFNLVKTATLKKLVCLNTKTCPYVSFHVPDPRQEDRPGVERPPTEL
Procedure: (§1) Tested compounds were dissolved in DMSO. […] The COX inhibitor screening assay depends on direct measurement of the amount of PG2α produced in the COX reaction. […] Enzyme catalysis was terminated by addition of 50 µl 1 M HCl and 100 µl of the saturated stannous chloride solution. The PGs are quantified by enzyme immunoassay (EIA) at 410 nm.
(§2) Thus, the newly synthesised compounds were tested for their anti-inflammatory activity against isozymes COX-1 and COX-2, which were determined by the COX-catalysed transformation of AA into PGH2 that was reduced to PGF2α and detected by the EIA[53], as shown in Table 1.

COX-2 = target: T4, COX-2 (Homo sapiens, UniProt P35354); assay: Cyclooxygenase COX-2 inhibition assay (Cayman COX inhibitor screening kit, EIA); conditions: for Selectivity indexes (SI): SI = IC50 COX-1/COX-2 ratios
T4 sequence (P35354 18-604): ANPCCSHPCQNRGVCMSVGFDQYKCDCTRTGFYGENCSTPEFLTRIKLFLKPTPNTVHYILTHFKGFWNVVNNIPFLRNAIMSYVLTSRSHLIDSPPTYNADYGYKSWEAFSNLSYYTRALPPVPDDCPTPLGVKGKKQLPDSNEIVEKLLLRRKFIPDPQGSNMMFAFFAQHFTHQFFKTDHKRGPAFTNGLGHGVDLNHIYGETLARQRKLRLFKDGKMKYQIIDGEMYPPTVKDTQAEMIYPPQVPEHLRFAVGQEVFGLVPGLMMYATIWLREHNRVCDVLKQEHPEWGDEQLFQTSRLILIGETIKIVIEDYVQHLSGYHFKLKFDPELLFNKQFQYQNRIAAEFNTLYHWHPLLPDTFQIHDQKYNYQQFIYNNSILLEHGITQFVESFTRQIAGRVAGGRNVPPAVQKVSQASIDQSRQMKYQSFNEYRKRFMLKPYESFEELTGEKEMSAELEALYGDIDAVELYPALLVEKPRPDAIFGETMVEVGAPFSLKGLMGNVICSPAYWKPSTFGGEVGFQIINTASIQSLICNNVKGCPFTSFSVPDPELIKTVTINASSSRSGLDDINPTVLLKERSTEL
Procedure: as §1, §2

[1] = read-out: COX1 IC50, mean ± SD of three experiments
[2] = read-out: COX 2 IC50, mean ± SD of three experiments

T2 sequence (P01375 77-233 limits assumed): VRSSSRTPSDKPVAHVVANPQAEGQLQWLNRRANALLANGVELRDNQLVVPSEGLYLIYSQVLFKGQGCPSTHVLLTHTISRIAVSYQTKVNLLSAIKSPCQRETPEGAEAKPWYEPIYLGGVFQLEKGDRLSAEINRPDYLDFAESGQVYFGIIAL

Row | Compound | IC50 (15-LOX) | IC50 (TNF-α) | IC50 (COX-1) | melting point | IC50 (COX-2) | Selectivity indexes (SI) (COX-2) | times less active than the reference drug indomethacin as COX-1 inhibitor (COX-1; ratio of COX-1 IC50 values) | IC50 (COX-1; [1]) | IC50 (COX-2; [2])
1 | O=C1OC(c2ccc(Cl)c(Cl)c2)=CC1=Cc1ccccc1[N+](=O)[O-] [Compound 2a, 5-(3,4-Dichlorophenyl)3-(2-nitrobenzylidene)-furan-2-one] | 5.1 ± 0.1 µM | 0.00747 ± 0.00012 µM | 4.53 ± 0.12 µM | 259 to 261 °C | 0.35 ± 0.01 µM | 12.94 |  |  | 
2 | O=C1OC(c2ccc(Cl)c(Cl)c2)=CC1=Cc1cccc([N+](=O)[O-])c1 [Compound 2b, 5-(3,4-Dichlorophenyl)3-(3-nitrobenzylidene)-furan-2-one] | 4.4 ± 0.1 µM | 0.00777 ± 0.00168 µM | 6.97 ± 0.12 µM | 230 to 232 °C | 0.28 ± 0.01 µM | 24.89 |  |  | 
3 | O=C(NCc1ccccc1)C(=Cc1ccccc1[N+](=O)[O-])CC(=O)c1ccc(Cl)c(Cl)c1 [Compound 4a, N-benzyl-2-(2-nitrobenzylidene)-4-(3,4-dichlorophenyl)-4-oxobutanamide] | 5.47 ± 0.12 µM | 0.00477 ± 0.00012 µM | 11.1 ± 0.15 µM | 250 to 252 °C | 0.05 µM | 221.40 |  |  | 
4 | O=C(NCc1ccccc1)C(=Cc1cccc([N+](=O)[O-])c1)CC(=O)c1ccc(Cl)c(Cl)c1 [Compound 4b, N-benzyl-2-(3-nitrobenzylidene)-4-(3,4-dichlorophenyl)-4-oxobutanamide] | 5.87 ± 0.06 µM | 0.00353 ± 0.00012 µM | 13.3 ± 0.15 µM | 124 to 126 °C | 0.06 µM | 222.17 |  |  | 
5 | O=C1NN(c2ccccc2)C(c2ccc(Cl)c(Cl)c2)=CC1=Cc1ccccc1[N+](=O)[O-] [Compound 5a, 6-(3,4-Dichlorophenyl)-4-(2-nitrobenzylidene)-1-phenyl-1,4-dihydropyridazin-3(2H)-one] | 2.7 ± 0.95 µM | 0.00493 ± 6e-05 µM | 12.73 ± 0.12 µM | > 300 °C | 0.06 µM | 212.17 |  |  | 
6 | O=C1NN(c2ccccc2)C(c2ccc(Cl)c(Cl)c2)=CC1=Cc1cccc([N+](=O)[O-])c1 [Compound 5b, 6-(3,4-Dichlorophenyl)-4-(3-nitrobenzylidene)-1-phenyl-1,4-dihydropyridazin-3(2H)-one] | 2.43 ± 0.12 µM | 0.00327 ± 0.00012 µM | 13 ± 0.1 µM | > 300 °C | 0.04 µM | 325.00 |  |  | 
7 | O=C(CC(=Cc1cccc([N+](=O)[O-])c1)c1n[nH]c(=S)o1)c1ccc(Cl)c(Cl)c1 [Compound 9b, 1-(3,4-Dichlorophenyl)-4-(3-nitrophenyl)-3-(2-thioxo-4,5-dihydro-1,3,4-oxadiazol-5-yl)but-3-en-1-one] | 1.63 ± 0.15 µM | 0.00433 ± 0.00012 µM | 10.4 ± 0.12 µM |  |  |  |  |  | 

Further lines, results first:

Row | IC50 (15-LOX) | IC50 (TNF-α) | IC50 (COX-1) | melting point | IC50 (COX-2) | Selectivity indexes (SI) (COX-2) | times less active than the reference drug indomethacin as COX-1 inhibitor (COX-1; ratio of COX-1 IC50 values) | IC50 (COX-1; [1]) | IC50 (COX-2; [2]) | Compound
8 | 6.13 ± 0.12 µM | 0.0082 ± 0.0001 µM | 3.93 ± 0.06 µM | 204 to 206 °C | 0.42 ± 0.02 µM | 9.36 | 39 |  |  | CN(C)c1ccc(C=C2C=C(c3ccc(Cl)c(Cl)c3)OC2=O)cc1 [Compound 2c, 5-(3,4-Dichlorophenyl)3-(4-dimethylaminobenzylidene)-furan-2-one]
9 | 2.33 ± 0.12 µM | 0.00593 ± 0.00015 µM | 8.37 ± 0.12 µM | > 300 °C | 0.19 ± 0.01 µM | 44.05 |  |  |  | O=C1NC(c2ccc(Cl)c(Cl)c2)=CC1=Cc1ccccc1[N+](=O)[O-] [Compound 3a, 5-(3,4-Dichlorophenyl)-3-(2-nitrobenzylidene)-1H-pyrrol-2-one]
10 | 1.87 ± 0.15 µM | 0.00827 ± 0.00012 µM | 6.87 ± 0.12 µM | > 300 °C | 0.39 ± 0.01 µM | 17.62 |  |  |  | O=C1NC(c2ccc(Cl)c(Cl)c2)=CC1=Cc1cccc([N+](=O)[O-])c1 [Compound 3b, 5-(3,4-Dichlorophenyl)-3-(3-nitrobenzylidene)-1H-pyrrol-2-one]
11 | 2.21 ± 0.98 µM | 0.00677 ± 0.00012 µM | 5.93 ± 0.15 µM | > 300 °C | 0.34 ± 0.01 µM | 17.44 |  |  |  | CN(C)c1ccc(C=C2C=C(c3ccc(Cl)c(Cl)c3)NC2=O)cc1 [Compound 3c, 5-(3,4-Dichlorophenyl)-3-(4-dimethylaminobenzylidene)-1H-pyrrol-2-one]
12 | 4.67 ± 0.06 µM | 0.00547 ± 0.00012 µM | 11.9 ± 0.1 µM | 241 to 243 °C | 0.05 µM | 238.00 |  |  |  | CN(C)c1ccc(C=C(CC(=O)c2ccc(Cl)c(Cl)c2)C(=O)NCc2ccccc2)cc1 [Compound 4c, N-benzyl-2-(4-dimethylaminobenzylidene]-4-(3,4-dichlorophenyl)-4-oxobutanamide]
13 | 2.97 ± 0.12 µM | 0.00357 ± 0.00012 µM | 11.7 ± 0.12 µM | > 300 °C | 0.09 µM | 130.33 |  |  |  | CN(C)c1ccc(C=C2C=C(c3ccc(Cl)c(Cl)c3)N(c3ccccc3)NC2=O)cc1 [Compound 5c, 6-(3,4-Dichlorophenyl)-4-(4-dimethylaminobenzylidene)-1-phenyl-1,4-dihydropyridazin-3(2H)-one]
14 | 5.47 ± 0.12 µM | 0.00853 ± 0.00012 µM |  |  |  | 41.35 |  | 7.03 ± 0.15 µM | 0.17 ± 0.01 µM | O=c1[nH]nc(-c2ccc(Cl)c(Cl)c2)cc1Cc1ccccc1[N+](=O)[O-] [Compound 7a, 3-(3,4-Dichlorophenyl)-5-[(2-nitropheny)l-methyl]-1H-pyridazin-6-one]
15 | 5.87 ± 0.06 µM | 0.00817 ± 6e-05 µM |  |  |  | 26.68 |  | 6.67 ± 0.12 µM | 0.25 ± 0.01 µM | O=c1[nH]nc(-c2ccc(Cl)c(Cl)c2)cc1Cc1cccc([N+](=O)[O-])c1 [Compound 7b, 3-(3,4-Dichlorophenyl)-5-[(3-nitropheny)l-methyl]-1H-pyridazin-6-one]
16 | 4.67 ± 0.06 µM | 0.00757 ± 6e-05 µM |  |  |  | 69.42 |  | 8.33 ± 0.06 µM | 0.12 ± 0.01 µM | CN(C)c1ccc(Cc2cc(-c3ccc(Cl)c(Cl)c3)n[nH]c2=O)cc1 [Compound 7c, 3-(3,4-Dichlorophenyl)-5-[(4-dimethylaminopheny)l-methyl]-1H-pyridazin-6-one]
